“Also recorded” adds a separate entry of the source.
Assays:
[1] = tested on: mouse embryonic stem cells; assay: Induction of mouse embryonic stem cells to differentiate to vascular endothelial cells (overall conclusion); type: cell-based; conditions: for differentiation of mouse embryonic stem cells to vascular endothelial cells: five to ten days, differentiation culture medium
From the text: Cell biology and molecular biology methods were adopted to study and validate the function of the 2,3-dihydro-3-hydroxymethyl-6-amino-[1,4]-benzoxazine of the invention to induce embryonic stem cells to differentiate to vascular endothelial cells with the following experiments.

[2] = tested on: mouse embryonic stem cells; assay: Influence on mouse embryonic stem cell morphology (inverted phase contrast microscope); type: cell-based; conditions: ten days
Procedure: The embryonic stem cells were evenly grown in a 24-well plate, a normal group was set after the cells adhered on the wall: the normal group was cultured under the condition of differentiation culture medium (after removal of leukemia inhibitory factor from normal culture medium); solvent control group: the group was cultured after DMSO was added under the culture condition of differentiation culture medium; experimental group: the group was cultured after 2,3-dihydro-3-hydroxymethyl-6-amino-[1,4]-benzoxazine with the concentration of 0.5 μM˜40 μM was added under the culture condition of differentiation culture medium. The culture conditions: 37° C., CO2 incubator box for cultivation. The culture medium should be replaced everyday in a timing mode, the morphological changes were observed under an inverted phase contrast microscope until the tenth day.
(§1) The embryonic stem cells were evenly grown in a 24-well plate according to density of 2×10^4 cells/well, DMEM (high glucose) containing leukemia inhibitory factor, L-glutamine, streptomycin, β-mercaptoethanol, non-essential amino acids, nucleotides and 15% PBS was used for culturing for 24 hours, the waste liquid was discarded after the cells adhered on the wall, and the cells were cleaned with 1×PBS. A normal group was set: the normal group was cultured under the culture condition that leukemia inhibitory factor was removed; solvent control group: the group was cultured after DMSO was added under the culture condition that leukemia inhibitory factor was removed; experimental group: the group was cultured after 2,3-dihydro-3-hydroxymethyl-6-amino-[1,4]-benzoxazine with the concentration of 0.5 μM, 1 μM, 5 μM, 10 μM, 20 μM, 30 μM and 40 μM was added under the culture condition that leukemia inhibitory factor was removed. The culture conditions: 37° C., CO2 incubator box for cultivation. The culture medium should be replaced everyday in a timing mode, and the cells were continuously cultured for ten days and then were observed under an inverted phase contrast microscope.

embryonic stem cells [3] = assay: Detection of in vitro vascularization on Matrigel; type: cell-based, mouse; conditions: cells induced for ten days
Procedure: The embryonic stem cells after induction for ten days were seeded in 24-well cell culture plate paved with Matrigel in advance, the detection culture system was replaced for the cells and placed at 37° C., the cells were cultured at CO2 incubator for 4 hours to 72 hours, and the vascularization conditions were regularly observed. The normal group was set: embryonic stem cells which were cultured for ten days under the culture conditions of differentiation culture medium; solvent control group: embryonic stem cells which were cultured for ten days after DMSO was added under the culture condition of differentiation culture medium. Experimental group: embryonic stem cells which were cultured for ten days after 2,3-dihydro-3-hydroxymethyl-6-amino-[1,4]-benzoxazine was added under the culture condition of differentiation culture medium.
The embryonic stem cells were evenly grown in a 24-well plate according to the density of 2×10^4 cells/well and cultured for 24 hours with DMEM (high glucose) containing leukemia inhibitory factor, L-glutamine, streptomycin, β-mercaptoethanol, non-essential amino acids, nucleotides and 15% FBS, the waste liquid was discarded after the cells adhered on the wall, and the cells were cleaned with 1×PBS. […]

[4] = tested on: vascular endothelial cell marker Flk-1 in embryonic stem cells; assay: Detection of vascular endothelial cell marker Flk-1 (immunohistochemistry, laser scanning confocal microscopy); type: cell-based, mouse; conditions: induction for 10 days
Procedure: The embryonic stem cells which were induced with 2,3-dihydro-3-hydroxymethyl-6-amino-[1,4]-benzoxazine with the concentration of 0.5 μM˜40 μM for 5 days and 10 days were evenly grown in 48-well plate and cultured for 24 hours in CO2 incubation chamber at 37° C., after the cells adhered on the wall, immunohistochemistry and laser scanning confocal microscopy were used for observing the expression of endothelial cell markers—Flk-1 The normal group was set: the group was cultured in under the culture condition of differentiation culture medium; solvent control group: the group was cultured after DMSO was added under the culture condition of differentiation culture medium; experimental group: the group was cultured after 2,3-dihydro-3-hydroxymethyl-6-amino-[1,4]-benzoxazine with the concentration of 0.5 μM˜40 μM was added under the culture condition of differentiation culture medium.
as §1, with “48-well” for “24-well”, “and cultured for 24 hours with” for “according to density of 2×10^4 cells/well,”, “FBS,” for “PBS was used for culturing for 24 hours,”, “The” for “A”, “the” for “the normal”, “cultivation.” for “cultivation. The culture medium should be replaced everyday in a timing mode, and the cells were continuously cultured for ten days and then were observed under an inverted phase contrast microscope.”

[5] = tested on: vascular endothelial marker CD31 in embryonic stem cells; assay: Detection of vascular endothelial cell marker CD31 (Western blot); type: cell-based, mouse; conditions: induction for 10 days
Procedure: The embryonic stem cells induced by 2,3-dihydro-3-hydroxymethyl-6-amino-[1,4]-benzoxazine with the concentration of 0.5 μM˜40 μM for ten days were cracked, and total cellular protein was distilled. The solvent control group was set: the group was cultured after DMSO was added under the culture condition of differentiation culture medium; experimental group: the group was cultured after 2,3-dihydro-3-(hydroxymethyl)-6-Amino-[1,4]-benzoxazine with the concentration of 0.5 μM˜40 μM under the culture condition of differentiation culture medium. The extracted embryonic stem cells were used for Western blot experiment to detect the expression of vascular endothelial marker CD31.
The embryonic stem cells were evenly grown in a 6-well plate according to the density of 2×10^4 cells/well, and cultured for 24 hours with DMEM (high glucose) containing leukemia inhibitory factor, L-glutamine, streptomycin, β-mercaptoethanol, non-essential amino acids, nucleotides and 15% FBS, the waste liquid was discarded after the cells adhered on the wall, and the cells were cleaned with 1×PBS. The normal group was set: the group was cultured under the culture condition that leukemia inhibitory factor was removed; solvent control group: the group was cultured after DMSO was added under the culture condition that leukemia inhibitory factor was removed; experimental group: the group was cultured after 2,3-dihydro-3-hydroxymethyl-6-amino-[1,4]-benzoxazine with the concentration of 0.5 μM, 1 μM, 5 μM, 10 μM, 20 μM, 30 μM and 40 μM was added under the culture condition that leukemia inhibitory factor was removed. The culture conditions: 37° C., CO2 incubator box for cultivation. The culture medium should be replaced everyday, and the cells should be continuously cultured for ten days. The total protein of each group of cells was distilled with cell lysate. The protein samples were denatured for 5 min at 100° C., glue was removed then, the protein was transferred on the PVDF film after completion, the PBS/t solution containing 5% skimmed milk powder was used for sealing for one hour at room temperature. The PBS/t solution containing 3% bovine serum almbumin was used for diluting the primary anti-body (1:5000), and incubated overnight with the PVDF film containing target protein at 4° C. PBS/t was used for dipping the film twice 5 min each time. PBS was used for diluting the secondary antibody (1:5000) and the cells were incubated for one hour at room temperature, the film was dipped with PSB for three times and 5 min each time. ECL chromogenic reagent was evenly coated on the PVDF film containing target protein ad reacted for five minutes, excessive Chromogenic reagent was removed, and the cells were placed together with the film in a dark box for five minutes to finish film colour development.

embryonic stem cells [6] = assay: Function detection of phagocytosis of Dil-Ac-LDL; type: cell-based, mouse; conditions: cells induced for ten days, six hours with Dil-Ac-LDL
Procedure: The embryonic stem cells after induction for ten days were seeded in 24-well paved with gelatin, placed at 37° C., and cultured in CO2 incubator. After the cells adhered on the wall, the Dil-Ac-LDL diluted with medium culture was added into the culture plates, placed at 37° C., and cultured in CO2 incubator for six hours. The normal group was set: embryonic stem cells which were cultured for ten days under the culture condition of differentiation culture medium; Solvent control group: the embryonic stem cells which were cultured for ten days after DMSO was added under the culture condition of differentiation culture medium; experimental group: the embryonic stem cells which were cultured for ten days after 2,3-dihydro-3-hydroxy methyl-6-amino-[1,4]-benzoxazine with the concentration of 0.5 μM˜40 μM was added under the culture condition of differentiation culture medium. […]
The embryonic stem cells were evenly grown in a 24-well plate according to the density of 2×10^4 cells/well and cultured for 24 hours with DMEM (high glucose) containing leukemia inhibitory factor, L-glutamine, streptomycin, β-mercaptoethanol, non-essential amino acids, nucleotides and 15% FBS, the waste liquid was discarded after the cells adhered on the wall, and the cells were cleaned with 1×PBS. […] The conditions of phagocytosing Dil-Ac-LDL were detected with laser confocal microscopy.

[7] = 10 μM, listed as 2 3-dihydro-3-hydroxymethyl-6-amino-[1,4]-benzoxazine

With Nc1ccc2c(c1)NC(CO)CO2 (centres unmarked) [2,3-dihydro-3-hydroxymethyl-6-amino-[1,4]-benzoxazine] the “optimal concentration for inducing differentiation to vascular endothelial cells” value [1] was 10 µM, the “differentiation of mouse embryonic stem cells to vascular endothelial cells” value ([1]; 1 μM˜20 μM) was “prominently promote differentiation of mouse embryonic stem cells to vascular endothelial cells” and the “differentiation of mouse embryonic stem cells to vascular endothelial cells” value ([1]; 10 μM) was “particularly prominent”. For the same molecule, the “cell morphology change to vascular endothelial cell form” value ([2]; 10 μM, differentiation culture medium without leukemia inhibitory factor) was “significant changes; also recorded: prominently prompt the embryonic stem cells to show the vascular endothelial form”, the “cell morphology change versus normal and solvent control groups” value ([2]; 1˜20 μM, differentiation culture medium without leukemia inhibitory factor) was “changed compared with the cell morphology of the control group; also recorded: changed compared with the cell form of the control group” and the “cell form changes of other treatment groups” value ([2]; other concentrations of the 0.5 μM˜40 μM range (outside 1˜20 μM)) was “relatively weak”. The “formation of vessel-like structures on Matrigel” value (embryonic stem cells [3]; 10 μM) was “particularly prominent vessel-like structures; also recorded: prominently form blood vessels in vitro; also recorded: prominently form blood vessels on Matrigel”, the “formation of vessel-like structures on Matrigel” value (embryonic stem cells [3]; 1˜20 μM) was “form varying degrees of cavity-like vessel-like structures” and the “expression of vascular endothelial cell marker Flk-1” value ([4]; 1 μM˜20 μM) was “increased”. For the same molecule, the “expression of vascular endothelial cell marker Flk-1” value ([4]; 10 μM) was “more obvious”, the “expression of vascular endothelial cell marker Flk-1” value [4, 7] was “stronger Flk-1 expression” and the “expression of vascular endothelial cell marker CD31” value ([5]; 1 μM˜20 μM, versus solvent control, listed as 2 3-dihydro-3-hydroxymethyl-6-amino-[1,4]-benzoxazine) was “increased”. The “expression of vascular endothelial cell marker CD31” value ([5]; 1 μM˜20 μM, versus solvent control, listed as 2,3-dihydro-3-(hydroxymethyl)-6-amino-[1,4]-benzoxazine) was “increased expression of CD31”, the “expression of vascular endothelial cell marker CD31” value ([5]; 10 μM) was “more significant” and the “expression of vascular endothelial cell marker CD31” value [5, 7] was “stronger CD31 expression”. For the same molecule, the “phagocytosis of Dil-Ac-LDL” value (embryonic stem cells [6]; 1 μM˜20 μM) was “can phagocytose Dil-Ac-LDL” and the “phagocytosis of Dil-Ac-LDL” value (embryonic stem cells [6]; 10 μM) was “particularly evident; also recorded: prominent effect of phagocytosing Dil-Ac-LDL; also recorded: prominently phagocytose Dil-Ac-LDL”.

Reference: US9101634B2, “Application of 2, 3-dihydro-3-hydroxymethyl-6-amino-[1,4]-benzoxazine in preparation of drugs inducing embryonic stem cells to differentiate to vascular endothelial cells” (SHANDONG UNIVERSITY, priority 2010, dated 2015)
